According to ChEMBL document CHEMBL3046256, “Sesquiterpene lactones: antispasmodic principles of the freshwater algae Hydrodictyon reticulatum” (Med Chem Res, 2012):

Tests used:
Jejunum = assay: Antispasmodic activity in Oryctolagus cuniculus (rabbit) jejunum assessed as K+-induced contraction at 1 mg/ml; type: functional
Ileum = assay: Ratio IC50 for papaverine to IC50 for compound for antispasmodic activity in rat ileum; type: functional

Structure (SMILES) | inhibition at 1000 µg/mL (Jejunum) [%] | Ratio IC50 (Ileum)
CO[C@]1(C)C[C@H](O)[C@@H]2[C@H](OC(=O)[C@H]2C)[C@@H]2[C@H]1CC[C@@]2(C)O | 39.5 | 0.083
CO[C@]1(C)C[C@H](O)[C@@H]2[C@H](OC(=O)[C@H]2C)[C@@H]2[C@H]1C[C@@H](O)[C@@]2(C)O | 43.4 | 0.09
C=C1CC[C@H]2O[C@]2(C)CC[C@@H]2[C@@H]1CC2(C)C [(-)-CARYOPHYLLENE OXIDE] | 31.6 | 0.071
COc1ccc(Cc2nccc3cc(OC)c(OC)cc23)cc1OC [PAPAVERINE] |  | 1
COc1ccc(CCN(C)CCCC(C#N)(c2ccc(OC)c(OC)c2)C(C)C)cc1OC (stereo not drawn) [VERAPAMIL] | 67.5 | 
